Target: T1, human 11βHSD1 enzyme (Homo sapiens, UniProt P28845)
T1 construct: baculovirus expressed N terminal 6-His tagged full length human 11βHSD1 enzyme; 6-His (N); made in house
Experiment: 11βHSD1 cortisone to cortisol conversion, competitive HTRF assay
Format: biochemical
Conditions: human 11-βHSD; test concentration of 30 μM of compound
How it was run: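 Enzyme was baculovirus-expressed, N-terminal 6-His-tagged full-length human 11βHSD1, purified on a copper chelate column. Compounds were added in buffer containing 1% DMSO at 10-fold final concentration.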

T1 sequence (P28845 whole entry): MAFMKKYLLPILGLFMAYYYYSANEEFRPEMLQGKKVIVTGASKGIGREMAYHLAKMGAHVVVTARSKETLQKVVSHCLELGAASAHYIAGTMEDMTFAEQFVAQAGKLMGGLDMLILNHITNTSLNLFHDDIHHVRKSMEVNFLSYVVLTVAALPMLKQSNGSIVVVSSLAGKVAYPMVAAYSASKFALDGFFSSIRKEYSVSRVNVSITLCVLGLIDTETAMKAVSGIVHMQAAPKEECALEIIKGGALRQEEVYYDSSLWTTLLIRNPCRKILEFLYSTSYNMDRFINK

Row | Compound | inhibition at 30 µM [%]
1 | O=C(N[C@H]1C2CC3CC1C[C@@](O)(C3)C2)c1cnc(N2CC(F)(F)C2)nc1C1CCCC1 [Example 146, 4-cyclopentyl-2-(3,3-difluoroazetidin-1-yl)-N-[(2r,5s)-5-hydroxyadamantan-2-yl]pyrimidine-5-carboxamide] | 93.4
2 | O=C(N[C@H]1C2CC3CC1C[C@@](O)(C3)C2)c1cnc(NCCN2CCOCC2)nc1C1CCCC1 [Example 147, 4-cyclopentyl-N-[(2r,5s)-5-hydroxytricyclo[3.3.1.13,7]dec-2-yl]-2-[(2-morpholin-4-ylethyl)amino]pyrimidine-5-carboxamide] | 103
3 | C[C@@H]1CN(CCNc2ncc(C(=O)N[C@H]3C4CC5CC3C[C@@](O)(C5)C4)c(C3CCCC3)n2)C[C@H](C)O1 [Example 148, 4-cyclopentyl-2-({2-[(2R,6S)-2,6-dimethylmorpholin-4-yl]ethyl}amino)-N-[(2r,5s)-5-hydroxytricyclo[3.3.1.13,7]dec-2-yl]pyrimidine-5-carboxamide] | 102
4 | O=C(N[C@H]1C2CC3CC1C[C@@](O)(C3)C2)c1cnc(C2CC2)nc1C1CCCC1 [Example 149, 4-Cyclopentyl-2-cyclopropyl-N-[(2r,5s)-5-hydroxyadamantan-2-yl]pyrimidine-5-carboxamide] | 92
5 | CC(C)c1ncc(C(=O)N[C@H]2C3CC4CC2C[C@@](O)(C4)C3)c(C2CCCC2)n1 [Example 150, 4-Cyclopentyl-N-[(2r,5s)-5-hydroxyadamantan-2-yl]-2-propan-2-ylpyrimidine-5-carboxamide] | 96
6 | NC1(c2ncc(C(=O)N[C@H]3C4CC5CC3C[C@@](O)(C5)C4)c(C3CCCC3)n2)CC1 [Example 151, 2-(1-Aminocyclopropyl)-4-cyclopentyl-N-[(2r,5s)-5-hydroxyadamantan-2-yl]pyrimidine-5-carboxamide] | 101
7 | NCc1ncc(C(=O)N[C@H]2C3CC4CC2C[C@@](O)(C4)C3)c(C2CCCC2)n1 [Example 152, 2-(Aminomethyl)-4-cyclopentyl-N-[(2r,5s)-5-hydroxyadamantan-2-yl]pyrimidine-5-carboxamide] | 97.8
8 | Cc1ncc(C(=O)N[C@H]2C3CC4CC2C[C@@](O)(C4)C3)c(C2CC(F)(F)C2)n1 [Example 153, 4-(3,3-difluorocyclobutyl)-N-[(2s,5r)-5-hydroxyadamantan-2-yl]-2-methylpyrimidine-5-carboxamide] | 91.7
9 | CNc1ncc(C(=O)N[C@H]2C3CC4CC2C[C@@](O)(C4)C3)c(C2CC(F)(F)C2)n1 [Example 154, 4-(3,3-difluorocyclobutyl)-N-[(2r,5s)-5-hydroxyadamantan-2-yl]-2-methylaminopyrimidine-5-carboxamide] | 88
10 | O=C(N[C@H]1C2CC3CC1C[C@@](O)(C3)C2)c1cnc(NC2CC2)nc1C1CC(F)(F)C1 [Example 155, 2-(cyclopropylamino)-4-(3,3-difluorocyclobutyl)-N-[(2r,5s)-5-hydroxyadamantan-2-yl]pyrimidine-5-carboxamide] | 92.6
11 | C[C@@H]1CN(c2ncc(C(=O)N[C@H]3C4CC5CC3C[C@@](O)(C5)C4)c(C3CC(F)(F)C3)n2)C[C@H](C)O1 [Example 156, 4-(3,3-difluorocyclobutyl)-2-[(2S,6R)-2,6-dimethylmorpholin-4-yl]-N-[(2r,5s)-5-hydroxyadamantan-2-yl]pyrimidine-5-carboxamide] | 65.5
12 | O=C(N[C@H]1C2CC3CC1C[C@@](O)(C3)C2)c1cnc(OC2CCC2)nc1C1CC(F)(F)C1 [Example 157] | 87.1
13 | Cc1ncc(C(=O)N[C@H]2C3CC4CC2C[C@@](O)(C4)C3)c(C2CCCO2)n1 (some centres unmarked) [Example 158, N-[(2r,5s)-5-hydroxyadamantan-2-yl]-2-methyl-4-(oxolan-2-yl)pyrimidine-5-carboxamide] | 96.5
14 | CC(C)Nc1ncc(C(=O)N[C@H]2C3CC4CC2C[C@@](O)(C4)C3)c(C2CCCO2)n1 (some centres unmarked) [Example 159, N-[(2r,5s)-5-hydroxyadamantan-2-yl]-4-(oxolan-2-yl)-2-(propan-2-ylamino)pyrimidine-5-carboxamide] | 98.2
15 | O=C(N[C@H]1C2CC3CC1C[C@@](O)(C3)C2)c1cnc(NC2CC2)nc1C1CCCO1 (some centres unmarked) [Example 160, 2-(cyclopropylamino)-N-[(2r,5s)-5-hydroxyadamantan-2-yl]-4-(oxolan-2-yl)pyrimidine-5-carboxamide] | 104
16 | CNc1ncc(C(=O)N[C@H]2C3CC4CC2C[C@@](O)(C4)C3)c(C2CCCO2)n1 (some centres unmarked) [Example 161, N-[(2r,5s)-5-hydroxyadamantan-2-yl]-2-methylamino-4-(oxolan-2-yl)pyrimidine-5-carboxamide] | 105
17 | O=C(N[C@H]1C2CC3CC1C[C@@](O)(C3)C2)c1cnc(NC2CCC2)nc1C1CCCO1 (some centres unmarked) [Example 162, 2-(cyclobutylamino)-N-[(2r,5s)-5-hydroxyadamantan-2-yl]-4-(oxolan-2-yl)pyrimidine-5-carboxamide] | 97.7
18 | O=C(N[C@H]1C2CC3CC1C[C@@](O)(C3)C2)c1cnc(NC2COC2)nc1C1CCCO1 (some centres unmarked) [Example 164, N-[(2r,5s)-5-hydroxyadamantan-2-yl]-2-(oxetan-3-ylamino)-4-(oxolan-2-yl)pyrimidine-5-carboxamide] | 98.9

Row | Compound | inhibition at 30 µM [%]
19 | CC(C)Oc1ncc(C(=O)N[C@H]2C3CC4CC2C[C@@](O)(C4)C3)c(C2CCCO2)n1 (some centres unmarked) [Example 165] | 105
20 | CSc1ncc(C(=O)N[C@H]2C3CC4CC2C[C@@](O)(C4)C3)c([C@H]2CCCO2)n1 [Example 166, N-[(2r,5s)-5-hydroxyadamantan-2-yl]-2-methylsulfanyl-4-[(2R)-oxolan-2-yl]pyrimidine-5-carboxamide] | 102
21 | CNc1ncc(C(=O)N[C@H]2C3CC4CC2C[C@@](O)(C4)C3)c([C@H]2CCCO2)n1 [Example 167, N-[(2r,5s)-5-hydroxyadamantan-2-yl]-2-methylamino-4-[(2R)-oxolan-2-yl]pyrimidine-5-carboxamide] | 101
22 | O=C(N[C@H]1C2CC3CC1C[C@@](O)(C3)C2)c1cnc(NC2CC2)nc1[C@H]1CCCO1 [Example 170, 2-(cyclopropylamino)-N-[(2r,5s)-5-hydroxyadamantan-2-yl]-4-[(2R)-oxolan-2-yl]pyrimidine-5-carboxamide] | 94.4
23 | CC(C)Nc1ncc(C(=O)N[C@H]2C3CC4CC2C[C@@](O)(C4)C3)c([C@H]2CCCO2)n1 [Example 171, N-[(2r,5s)-5-hydroxyadamantan-2-yl]-4-[(2R)-oxolan-2-yl]-2-(propan-2-ylamino)pyrimidine-5-carboxamide] | 103
24 | C[C@@H]1CN(c2ncc(C(=O)N[C@H]3C4CC5CC3C[C@@](O)(C5)C4)c([C@H]3CCCO3)n2)C[C@H](C)N1 [Example 172, 2-[(3S,5R)-3,5-dimethylpiperazin-1-yl]-N-[(2r,5s)-5-hydroxyadamantan-2-yl]-4-[(2R)-oxolan-2-yl]pyrimidine-5-carboxamide] | 97.2
25 | O=C(N[C@H]1C2CC3CC1C[C@@](O)(C3)C2)c1cnc(NC2COC2)nc1[C@H]1CCCO1 [Example 173, N-[(2r,5s)-5-hydroxyadamantan-2-yl]-2-(oxetan-3-ylamino)-4-[(2R)-oxolan-2-yl]pyrimidine-5-carboxamide] | 101
26 | O=C(N[C@H]1C2CC3CC1C[C@@](O)(C3)C2)c1cnc(NC2CCOCC2)nc1[C@H]1CCCO1 [Example 174, N-[(2r,5s)-5-hydroxyadamantan-2-yl]-2-(oxan-4-ylamino)-4-[(2R)-oxolan-2-yl]pyrimidine-5-carboxamide] | 95
27 | O=C(N[C@H]1C2CC3CC1C[C@@](O)(C3)C2)c1cnc(NC2CCC2)nc1[C@H]1CCCO1 [Example 175, 2-(cyclobutaylamino)-N-[(2r,5s)-5-hydroxyadamantan-2-yl]-4-[(2R)-oxolan-2-yl]pyrimidine-5-carboxamide] | 103
28 | CC(C)Oc1ncc(C(=O)N[C@H]2C3CC4CC2C[C@@](O)(C4)C3)c([C@H]2CCCO2)n1 [Example 176] | 97.9
29 | CSc1ncc(C(=O)N[C@H]2C3CC4CC2C[C@@](O)(C4)C3)c([C@@H]2CCCO2)n1 [Example 177, N-[(2r,5s)-5-hydroxyadamantan-2-yl]-2-methylsulfanyl-4-[(2S)-oxolan-2-yl]pyrimidine-5-carboxamide] | 95.8
30 | CNc1ncc(C(=O)N[C@H]2C3CC4CC2C[C@@](O)(C4)C3)c([C@@H]2CCCO2)n1 [Example 178, N-[(2r,5s)-5-hydroxyadamantan-2-yl]-2-methylamino-4-[(2S)-oxolan-2-yl]pyrimidine-5-carboxamide] | 95.3
31 | CC(C)Nc1ncc(C(=O)N[C@H]2C3CC4CC2C[C@@](O)(C4)C3)c([C@@H]2CCCO2)n1 [Example 179, N-[(2r,5s)-5-hydroxyadamantan-2-yl]-4-[(2S)-oxolan-2-yl]-2-(propan-2-ylamino)pyrimidine-5-carboxamide] | 95.1
32 | O=C(N[C@H]1C2CC3CC1C[C@@](O)(C3)C2)c1cnc(NC2CC2)nc1[C@@H]1CCCO1 [Example 180, 2-(cyclopropylamino)-N-[(2r,5s)-5-hydroxyadamantan-2-yl]-4-[(2S)-oxolan-2-yl]pyrimidine-5-carboxamide] | 98.8
33 | CC(C)Oc1ncc(C(=O)N[C@H]2C3CC4CC2C[C@@](O)(C4)C3)c([C@@H]2CCCO2)n1 [Example 181] | 95
34 | Cc1ncc(C(=O)N[C@H]2C3CC4CC2C[C@@](O)(C4)C3)c(C2CCC(F)(F)C2)n1 (some centres unmarked) [Example 184, 4-(3,3-Difluorocyclopentyl)-N-[(2r,5s)-5-hydroxyadamantan-2-yl]-2-methylpyrimidine-5-carboxamide] | 108
35 | COc1ncc(C(=O)NC2C3CC4CC2CC(O)(C4)C3)c(C2(C)CC2)n1 (centres unmarked) [Example 187, N-[(2r,5 s)-5-hydroxyadamantan-2-yl]-2-methoxy-4-(1-methylcyclopropyl)pyrimidine-5-carboxamide] | 99

Source: patent US20090264401A1, “SUBSTITUTED PYRIMIDIN-5-CARBOXAMIDES 281” (AstraZeneca AB, priority 2008, published 2009)
